# According to patent US10377717B2, “Farnesoid X receptor agonists and uses thereof” (Metacrine, Inc., priority 2015, dated 2019):
# Target: hFXR (Homo sapiens (Human), UniProt Q96RI1)
# Test: In Vitro FXR Assay (TK), luciferase reporter in transfected CV-1 cells
# Format: cell-based
# Conditions: TK-ECRE-luc reporter, hFXR/hRXR, 18 hrs, maximum efficacy <25% of Fexaramine control classified as '+'
# Procedure: CV-1 cells were seeded at a density of 2,000,000 cells in a T175 flask with DMEM+10% charcoal double-stripped FBS and incubated at 37° C. in 5% CO2 for 18 h (O/N).
# After 18 h of incubation, the medium in the T175 flask was changed with fresh DMEM+10% charcoal super-stripped serum. In a polypropylene tube, 2500 μL OptiMEM (Life Technologies, Cat #31985-062) was combined with expression plasmids for hFXR, hRXR, TK-ECRE-luc and pCMX-YFP. The tube was then briefly vortexed and incubated at room temperature for 5 minutes. Transfection reagent (X-tremeGENE HP from Roche, Cat #06 366 236 001) was added to the OptiMEM/plasmid mixture vortexed and incubated at room temperature for 20 minutes. Following incubation, the transfection reagent/DNA mixture complex was added to cells in the T175 flask and the cells were incubated at 37° C. in 5% CO2 for 18 h (O/N).
# Compounds were serially diluted in DMSO and added to transfected CV-1 cells. The cells were then incubated for 18 hrs. The next day cells were lysed and examined for luminescence.
# Chain of hFXR (Q96RI1 whole entry): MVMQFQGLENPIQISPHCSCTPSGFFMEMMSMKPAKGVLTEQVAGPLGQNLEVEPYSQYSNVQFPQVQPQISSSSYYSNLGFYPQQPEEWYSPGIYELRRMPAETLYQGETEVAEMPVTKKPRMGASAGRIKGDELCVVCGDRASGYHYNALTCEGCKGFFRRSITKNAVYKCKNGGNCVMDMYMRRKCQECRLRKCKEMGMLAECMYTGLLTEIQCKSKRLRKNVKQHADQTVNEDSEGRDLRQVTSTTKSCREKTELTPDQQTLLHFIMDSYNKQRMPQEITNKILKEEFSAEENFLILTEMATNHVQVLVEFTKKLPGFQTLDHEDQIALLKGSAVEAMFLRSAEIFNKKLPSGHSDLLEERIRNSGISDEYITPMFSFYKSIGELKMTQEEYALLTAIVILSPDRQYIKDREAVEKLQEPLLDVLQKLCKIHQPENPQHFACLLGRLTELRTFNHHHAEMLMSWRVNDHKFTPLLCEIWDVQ
# Chain of hFXR (P19793 whole entry partner): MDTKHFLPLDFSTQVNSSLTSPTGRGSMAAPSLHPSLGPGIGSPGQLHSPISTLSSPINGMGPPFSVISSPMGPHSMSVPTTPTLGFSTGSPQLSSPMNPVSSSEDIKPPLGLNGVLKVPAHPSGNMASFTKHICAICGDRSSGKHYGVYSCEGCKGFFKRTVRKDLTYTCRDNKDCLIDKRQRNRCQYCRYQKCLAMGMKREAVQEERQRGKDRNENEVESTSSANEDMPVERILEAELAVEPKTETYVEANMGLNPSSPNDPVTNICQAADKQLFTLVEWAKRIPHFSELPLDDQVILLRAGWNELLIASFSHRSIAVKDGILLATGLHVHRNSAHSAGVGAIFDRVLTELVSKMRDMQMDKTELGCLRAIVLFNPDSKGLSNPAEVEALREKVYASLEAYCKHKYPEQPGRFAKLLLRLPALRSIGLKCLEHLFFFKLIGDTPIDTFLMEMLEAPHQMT
row,SMILES,EC50 [nM]
1,"COC(=O)c1ccc2c(N(Cc3ccc(-c4ccc(C)c(Cl)c4)cc3)C(=O)CC(C)(C)C)nccc2c1 [Compound 55, Methyl 1-(N-((3′-chloro-4′-methyl-[1,1′-biphenyl]-4-yl)methyl)-3,3-dimethylbutanamido)isoquinoline-6-carboxylate]",≤ 1000
2,"COc1ccc(-c2ccc(CN(C(=O)C3CCCCC3)c3nccc4cc(C(=O)OC(C)C)ccc34)cc2)cc1C [Compound 22, Isopropyl 1-(N-((4′-methoxy-3′-methyl-[1,1′-biphenyl]-4-yl)methyl)cyclohexanecarboxamido) isoquinoline-6-carboxylate]",≤ 1000
3,"COC(=O)c1ccc2c(N(Cc3ccc(-c4ccc(OC)c(C)c4)c(C#N)c3)C(=O)CC(C)(C)C)nccc2c1 [Compound 26, Methyl 1-(N-((2-cyano-4′-methoxy-3′-methyl-[1,1′-biphenyl]-4-yl)methyl)-3,3-dimethylbutanamido)isoquinoline-6-carboxylate]",≤ 1000
4,"COC(=O)c1ccc2ccc(N(Cc3ccc(-c4ccc(N(C)C)cc4)cc3)C(=O)C3CCCCC3)cc2c1 [Compound 15, Methyl 7-(N-((4′-(dimethylamino)-[1,1′-biphenyl]-4-yl)methyl)cyclohexanecarboxamido)-2-naphthoate]",≥ 10000
5,"COC(=O)c1ccc2c(N(Cc3ccc(-c4ccc(N(C)C)cc4)cc3)C(=O)C3CCCCC3)nccc2c1 [Compound 13, Methyl 1-(N-((4′-(dimethylamino)-[1,1′-biphenyl]-4-yl)methyl)cyclohexanecarboxamido) isoquinoline-6-carboxylate]",≤ 1000
6,"COC(=O)c1ccc2c(N(Cc3ccc(-c4ccc(C)nc4)cc3)C(=O)CC(C)(C)C)nccc2c1 [Compound 39, Methyl 1-(3,3-dimethyl-N-(4-(6-methylpyridin-3-yl)benzyl)butanamido)isoquinoline-6-carboxylate]",1000 to 10000
7,"COC(=O)c1ccc2c(N(Cc3ccc(-c4ccc(N(C)C)nc4)cc3)C(=O)CC(C)(C)C)nccc2c1 [Compound 38, Methyl 1-(N-(4-(6-(dimethylamino)pyridin-3-yl)benzyl)-3,3-dimethylbutanamido)isoquinoline-6-carboxylate]",≤ 1000
8,"COC(=O)c1ccc2c(N(Cc3ccc(-c4ccc(C5CC5)cc4)cc3)C(=O)CC(C)(C)C)nccc2c1 [Compound 40, Methyl 1-(N-((4′-cyclopropyl-[1,1′-biphenyl]-4-yl)methyl)-3,3-dimethylbutanamido)isoquinoline-6-carboxylate]",≤ 1000
9,"COC(=O)c1ccc2c(N(Cc3ccc(-c4ccc(OC)c(C)c4)cc3)C(=O)C3CCCCCC3)nccc2c1 [Compound 25, Methyl 1-(N-((4′-methoxy-3′-methyl-[1,1′-biphenyl]-4-yl)methyl)cycloheptanecarboxamido) isoquinoline-6-carboxylate]",≤ 1000
10,"COC(=O)c1ccc2c(N(Cc3ccc(-c4ccc(C#N)c(C)c4)cc3)C(=O)CC(C)(C)C)nccc2c1 [Compound 42, Methyl 1-(N-((4′-cyano-3′-methyl-[1,1′-biphenyl]-4-yl)methyl)-3,3-dimethylbutanamido)isoquinoline-6-carboxylate]",≤ 1000
11,"CCOC(=O)c1cnc2c(N(Cc3ccc(-c4ccc(N(C)C)cc4)cc3)C(=O)C3CCCCC3)cccc2c1 [Compound 14, Ethyl 8-(N-((4′-(dimethylamino)-[1,1′-biphenyl]-4-yl)methyl)cyclohexanecarboxamido) quinoline-3-carboxylate]",1000 to 10000
12,"COC(=O)c1ccc2c(N(Cc3ccc(-c4ccc(F)c(OC)c4)cc3)C(=O)CC(C)(C)C)nccc2c1 [Compound 54, Methyl 1-(N-((4′-fluoro-3′-methoxy-[1,1′-biphenyl]-4-yl)methyl)-3,3-dimethylbutanamido)isoquinoline-6-carboxylate]",1000 to 10000
13,"COC(=O)c1ccc2c(N(Cc3ccc(-c4ccc(C)c(C#N)c4)cc3)C(=O)CC(C)(C)C)nccc2c1 [Compound 30, Methyl 1-(N-((3′-cyano-4′-methyl-[1,1′-biphenyl]-4-yl)methyl)-3,3-dimethylbutanamido)isoquinoline-6-carboxylate]",≤ 1000
14,"COC(=O)c1ccc2c(N(Cc3ccc(-c4ccc(Cl)c(C#N)c4)cc3)C(=O)CC(C)(C)C)nccc2c1 [Compound 32, Methyl 1-(N-((4′-chloro-3′-cyano-[1,1′-biphenyl]-4-yl)methyl)-3,3-dimethylbutanamido)isoquinoline-6-carboxylate]",1000 to 10000
15,"COC(=O)c1cc2c(N(Cc3ccc(-c4ccc(N(C)C)cc4)cc3)C(=O)C3CCCCC3)cccc2[nH]1 [Compound 11, Methyl 4-(N-((4′-(dimethylamino)-[1,1′-biphenyl]-4-yl)methyl)cyclohexanecarboxamido)-1H-indole-2-carboxylate]",≥ 10000
16,"COC(=O)c1ccc2c(N(Cc3ccc(-c4cnc(OC)c(C)c4)cc3)C(=O)CC(C)(C)C)nccc2c1 [Compound 37, Methyl 1-(N-(4-(6-methoxy-5-methylpyridin-3-yl)benzyl)-3,3-dimethylbutanamido)isoquinoline-6-carboxylate]",≤ 1000
17,"COC(=O)c1ccc2c(N(Cc3ccc(-c4ccc(OC)c(C)c4)cc3)C(C)=O)nccc2c1 [Compound 27, Methyl 1-(N-((4′-methoxy-3′-methyl-[1,1′-biphenyl]-4-yl)methyl)acetamido)isoquinoline-6-carboxylate]",≥ 10000

# More lines, now with the values ahead:
row,EC50 [nM],SMILES
1,≤ 1000,"COC(=O)c1ccc2c(N(Cc3ccc(-c4ccc(OC)c(Cl)c4)cc3)C(=O)[C@H]3CC[C@H](O)CC3)nccc2c1 [Compound 66, Methyl 1-(trans-N-((3′-chloro-4′-methoxy-[1,1′-biphenyl]-4-yl)methyl)-4-hydroxycyclohexanecarboxamido) isoquinoline-6-carboxylate]"
2,≥ 10000,"COC(=O)c1ccc2c(N(Cc3ccc(-c4ccc(OC)c(C)c4)cc3)C(=O)CCCCO)nccc2c1 [Compound 86, Methyl 1-(5-hydroxy-N-((4′-methoxy-3′-methyl-[1,1-biphenyl]-4-yl)methyl)pentanamido) isoquinoline-6-carboxylate]"
3,1000 to 10000,"COC(=O)c1ccc2c(N(Cc3ccc(-c4ccc(OC)c(C)c4)cc3)C(=O)CCc3ccccc3)nccc2c1 [Compound 77, Methyl 1-(N-((4′-methoxy-3′-methyl-[1,1′-biphenyl]-4-yl)methyl)-3-phenylpropanamido)isoquinoline-6-carboxylate]"
4,1000 to 10000,"COC(=O)c1ccc2c(N(C[C@H]3CC[C@H](c4ccc(Cl)cc4)CC3)C(=O)CC(C)(C)C)nccc2c1 [Compound 95, Methyl 1-(N-((trans-4-(4-chlorophenyl)cyclohexyl)methyl)-3,3-dimethylbutanamido)isoquinoline-6-carboxylate]"
5,1000 to 10000,"COC(=O)c1ccc2c(N(CC3CCN(c4ccc(OC)c(C)c4)CC3)C(=O)CC(C)(C)C)nccc2c1 [Compound 98, Methyl 1-(N-((1-(4-methoxy-3-methylphenyl)piperidin-4-yl)methyl)-3,3-dimethylbutanamido)isoquinoline-6-carboxylate]"
6,≥ 10000,"COC(=O)c1ccc2c(N(Cc3ccc(-c4ccc(OC)c(C)c4)cc3)C(=O)CCCO)nccc2c1 [Compound 85, Methyl 1-(4-hydroxy-N-((4′-methoxy-3′-methyl-[1,1′-biphenyl]-4-yl)methyl)butanamido) isoquinoline-6-carboxylate]"
7,≤ 1000,"COC(=O)c1ccc2c(N(Cc3ccc(-c4ccc(OC)c(C)c4)cc3)C(=O)CCC(C)(C)C)nccc2c1 [Compound 76, Methyl 1-(N-((4′-methoxy-3′-methyl-[1,1′-biphenyl]-4-yl)methyl)-4,4-dimethylpentanamido)isoquinoline-6-carboxylate]"
8,≤ 1000,"COC(=O)c1ccc2c(N(Cc3ccc(-c4ccc(C(F)F)cc4)cc3)C(=O)CC(C)(C)C)nccc2c1 [Compound 56, Methyl 1-(N-((4′-(difluoromethyl)-[1,1′-biphenyl]-4-yl)methyl)-3,3-dimethylbutanamido)isoquinoline-6-carboxylate]"
9,1000 to 10000,"COC(=O)c1ccc2c(N(Cc3ccc(-c4ccc(OC)c(C#N)c4)cc3)C(=O)[C@H]3CC[C@H](O)CC3)nccc2c1 [Compound 67, Methyl 1-(trans-N-((3′-cyano-4′-methoxy-[1,1′-biphenyl]-4-yl)methyl)-4-hydroxycyclohexanecarboxamido) isoquinoline-6-carboxylate]"
10,≤ 1000,"COC(=O)c1ccc2c(N(Cc3ccc(-c4ccc5c(c4)CCN5C)cc3)C(=O)CC(C)(C)C)nccc2c1 [Compound 64, Methyl 1-(3,3-dimethyl-N-(4-(1-methylindolin-5-yl)benzyl)butanamido)isoquinoline-6-carboxylate]"
11,≤ 1000,"COC(=O)c1ccc2c(N(Cc3ccc(-c4ccc(OC)c(C)c4)cc3)C(=O)C3CCCC3)nccc2c1 [Compound 71, Methyl 1-(N-((4′-methoxy-3′-methyl-[1,1′-biphenyl]-4-yl)methyl)cyclopentanecarboxamido) isoquinoline-6-carboxylate]"
12,≤ 1000,"CCCCC(=O)N(Cc1ccc(-c2ccc(OC)c(C)c2)cc1)c1nccc2cc(C(=O)OC)ccc12 [Compound 81, Methyl 1-(N-((4′-methoxy-3′-methyl-[1,1′-biphenyl]-4-yl)methyl)pentanamido) isoquinoline-6-carboxylate]"
13,≤ 1000,"CCCC(=O)N(Cc1ccc(-c2ccc(OC)c(C)c2)cc1)c1nccc2cc(C(=O)OC)ccc12 [Compound 82, Methyl 1-(N-((4′-methoxy-3′-methyl-[1,1′-biphenyl]-4-yl)methyl)butyramido)isoquinoline-6-carboxylate]"
